# Values joined by “and” are separate entries in the source; they are usually repeats but may differ in a detail not shown here. Equal entries are not always repeated.
# How the values were obtained:
# human rChAT [1] = molecular target: T1, human rChAT (Homo sapiens, UniProt P28329); assay: In vitro ChAT activity inhibition fluorometric assay and kinetic studies; assay type: biochemical; details: for inhibition at 100 µM: read-out: ChAT % IR (inhibition rate)
# T1 construct: made in house; host or cells: E. coli BL21 Rosetta2
# T1 sequence (P28329 1-630 isoform P28329-3): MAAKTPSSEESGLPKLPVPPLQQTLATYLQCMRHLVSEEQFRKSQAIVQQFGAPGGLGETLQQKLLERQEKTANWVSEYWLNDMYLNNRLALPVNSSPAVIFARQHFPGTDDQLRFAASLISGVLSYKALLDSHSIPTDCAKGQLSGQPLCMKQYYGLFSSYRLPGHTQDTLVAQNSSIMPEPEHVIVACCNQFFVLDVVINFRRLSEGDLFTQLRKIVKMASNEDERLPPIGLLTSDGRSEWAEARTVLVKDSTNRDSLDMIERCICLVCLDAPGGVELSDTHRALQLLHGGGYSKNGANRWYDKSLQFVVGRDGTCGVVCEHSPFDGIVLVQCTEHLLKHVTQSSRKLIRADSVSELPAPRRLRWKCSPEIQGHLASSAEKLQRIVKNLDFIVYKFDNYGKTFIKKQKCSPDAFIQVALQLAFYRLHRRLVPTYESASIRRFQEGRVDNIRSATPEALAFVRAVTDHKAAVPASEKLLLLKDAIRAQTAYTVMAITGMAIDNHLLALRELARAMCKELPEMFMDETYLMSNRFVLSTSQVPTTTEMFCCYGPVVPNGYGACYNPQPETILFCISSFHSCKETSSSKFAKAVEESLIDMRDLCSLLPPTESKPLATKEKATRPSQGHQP
# Experimental: ChAT activity was measured using our newly developed fluorometric assay, using human recombinant ChAT (rChAT) protein. The reagents, choline chloride, acetyl coenzyme-A (ACoA, A2181) and 7-Diethylamino-3-(4-maleimidophenyl)-4-methylcoumarin (CPM) were purchased from Sigma-Aldrich (St. Louis, MO, USA).
# The ChAT assay could be run in either 96-well or 384-well plates. For 96-well plates, 50 μL/well of 0.212 µg/ml (final concentration) of the recombinant ChAT was incubated with 100 μM different Asinex compounds (50 μL/well) for 10–30 minutes at room temperature in dilution buffer (10 mM Tris-HCl, pH 7.4, 150 mM NaCl, 1.0 mM EDTA, 0.05% (v/v) Triton X-100). Then, 50 µL of a cocktail-A [dilution buffer containing choline chloride (final concentration 150 µM), ACoA (final concentration 13.3 µM) and CPM (final concentration 15 µM)] was added to each well. Immediately after adding the cocktail-A, the changes in fluorescence was monitored kinetically at 479 nm after exciting at 390 nm at 1–2 minute intervals for 15–20 minutes using a microplate spectrophotometer reader (Infinite M1000, Tecan).
# Each Asinex compounds were run in triplicates. On each 96-wells plate, several enzyme wells without inhibitor were also included during measurements as control and for estimating the inhibition level. Negative controls were wells without enzyme. The percentage inhibition for each Asinex compound was calculated based on the enzyme control value as a reference (100% activity). The compounds showing over 50% inhibition of enzyme activity were selected for further kinetic studies.
# (§1) For kinetic studies, a similar protocol as inhibition assay was followed; a dilution series of five different concentrations ranging from 10^−6 to 10^−9 M were prepared for each selected Asinex compounds. For ChAT, the A-CoA was kept constant at 10 μM (final) but the concentration of choline chloride varied between 320–10 μM. For BuChE, BTC was used as the substrate in the concentrations ranging from 0.0625 to 2 mM. For AChE, ATC was used as the substrate in the concentrations ranging from 0.0312 to 1 mM. Each compound concentration was measured in duplicates. The rate of enzyme activity (as ∆OD/hr kinetic data) was calculated and processed using the GraphPad Prism 7 analysis software. The inhibitory constant (Ki) values were determined from the dose-response curve and the half-maximal inhibitory concentration (IC50) values were calculated by plotting the percentage enzyme activity vs. the log of the Asinex compound concentrations and fitting the data using the nonlinear regression Enzyme Kinetics-Inhibition function.
# The Michaelis-Menten constant (Km) and maximal velocity (Vmax) values were calculated from substrate-velocity curve after fitting the data with non-linear regression Michaelis-Menten kinetic function. The Km and Vmax values were further used to plot the Lineweaver-Burk plots; the plots were fitted using linear regression function.
# HEK 293 cells = assay: MTT cell viability assay; assay type: cell-based; details: overnight, control cells 100%, mean ± SD of 3 readings
# Experimental: Finally, to assess the prospective of the identified compounds for further development into ChAT ligands, we assessed the compounds active against ChAT, AChE and BuChE, for their cellular toxicity on human embryonic kidney (HEK 293) cells using the cell viability 3-(4,5-dimethylthiazol-2-yl)-2,5-diphenyltetrazolium bromide (MTT) assay. All compounds were evaluated at 10 and 50 µM concentrations. The cell viability data is given in Table 4 (also represented as a bar chart in Fig. 9).
# The in vitro cellular toxicity of the active compounds was evaluated using MTT assay. Briefly, Human embryonic kidney epithelial (HEK-293) cells cultured at 37 °C in a humidified environment with 5% CO2 in Dulbecco’s Modified Eagle’s medium (DMEM) in 96 well plate to obtain 70–80% confluency. Further, the cells were incubated overnight at 37 °C with 10 µM and 50 µM compounds in triplicate. Cells treated with 1% DMSO were used as controls. At the end of the treatment (12 h), 10 μL of 12 mM MTT dissolved in Phosphate buffer saline pH 7.4, was added to each well and incubated for an additional 2 h at 37 °C. The media was then removed from the plate and 100 µL of DMSO was added to dissolve the violet formazan crystals. Finally, the absorbance was measured at 540 nm with a reference wavelength of 630 nm on Tecan spectrophotometer with shaking before the reading. The percentage viability was calculated taking 1% DMSO control as 100 percent and presented as mean ± SD.
# plasma BuChE = molecular target: T2, plasma BuChE (Homo sapiens, UniProt P06276); assay: Modified Ellman's colorimetric assay for BuChE (pooled human plasma) and kinetic studies; assay type: biochemical; details: for inhibition at 200 µM: read-out: BuChE % IR (inhibition rate)
# T2 construct: 1:450 diluted solution of a pooled human plasma; from tissue; host or cells: pooled human plasma
# Text: (§2) A modified version of Ellman’s colorimetric assay[16],[17] was adapted to a high throughput assay for the enzymatic activity of BuChE and AChE. The reagent, butyrylthiocholine iodide (BTC), acetylthiocholine iodide (ATC), 5,5′-dithiobis (2-nitrobenzoic acid) (DTNB) were purchased from Sigma-Aldrich (St. Louis, MO, USA). The modified assay details are as previously described[34],[35]. The main modification concerned with the high throughput adaptation of the assay for use in 384-well plates. Briefly, 25 μL/well of a 1:450 diluted solution of a pooled human plasma and 1:768 diluted (3.5 ng/ml final concentration) purified recombinant human AChE protein (Sigma, Cat no. C1682) was used for measurement of BuChE and AChE activity, respectively. In the initial in vitro screening step, the wells were pre-incubated with 25 μL/wells of different Asinex compounds for 10–30 minutes at room temperature. The concentration of the compounds working solution was 3X to give a final concentration of 200 μM in a final volume of 75 μL in each well. The stock concentration of the compounds were prepared in 100% DMSO. The stock concentration was chosen usually at 10 mM, allowing the final DMSO concentration in the wells to be less than 4%. Finally, 25 μL of a cocktail mix prepared in Na/K phosphate buffer, containing DTNB (final concentration 0.4 mM) and BTC, (final concentration 1 mM) or ATC (final concentration 0.5 mM) was added to each well and the changes in absorbance was monitored at 412 nm wavelength for 15–20 minutes with one-minute interval, using a microplate spectrophotometer reader (Infinite M1000, Tecan). The rate of the enzyme activity was determined from the linear part of the kinetic reaction curves as ∆OD/time.
# as §1
# recombinant human AChE = molecular target: T3, recombinant human AChE (Homo sapiens, UniProt P22303); assay: Modified Ellman's colorimetric assay for AChE and kinetic studies; assay type: biochemical; details: for inhibition at 200 µM: read-out: AChE % IR (inhibition rate); for Ki / IC50: mean of two experiments; for IC50: substrate ATC 0.5 mM
# T3 construct: purchased Sigma C1682
# Text: as §2, §1
# human rChAT [2] = molecular target: T1, human rChAT; assay: In vitro ChAT activity inhibition fluorometric assay and kinetic studies; assay type: biochemical; details: mean ± SEM of two experiments
# ChAT = system: ChAT; design: method as in PMID 27507101; details: as previously reported by our group ref 26; cited from earlier work
# [3] = 100 µM compound, compared to control, mean of three experiments in triplicate
# [4] = 200 µM compound, compared to control, mean of three experiments in triplicate
# [5] = substrate BTC 1 mM, mean of two experiments
# [6] = Lineweaver-Burk plot and nonlinear regression fit
# [7] = 200 µM compound, compared to control, mean of three experiments in triplicate, 200 µM
# T2 sequence (P06276 29-602): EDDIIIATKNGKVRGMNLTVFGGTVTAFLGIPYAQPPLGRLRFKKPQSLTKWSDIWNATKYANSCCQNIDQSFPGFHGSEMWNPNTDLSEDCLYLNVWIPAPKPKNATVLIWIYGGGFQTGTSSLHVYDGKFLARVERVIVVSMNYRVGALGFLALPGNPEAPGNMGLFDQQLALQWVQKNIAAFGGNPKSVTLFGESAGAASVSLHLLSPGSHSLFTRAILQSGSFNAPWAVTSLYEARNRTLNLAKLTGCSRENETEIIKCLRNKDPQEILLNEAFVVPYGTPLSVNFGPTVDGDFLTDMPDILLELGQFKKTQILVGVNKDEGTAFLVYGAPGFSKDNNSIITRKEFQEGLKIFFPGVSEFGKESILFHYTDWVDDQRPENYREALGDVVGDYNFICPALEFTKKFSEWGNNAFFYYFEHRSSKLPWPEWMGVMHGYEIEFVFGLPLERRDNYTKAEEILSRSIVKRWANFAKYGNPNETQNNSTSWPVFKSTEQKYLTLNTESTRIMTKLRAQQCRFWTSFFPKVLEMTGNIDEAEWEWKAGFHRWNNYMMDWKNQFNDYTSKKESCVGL
# T3 sequence (P22303 32-614): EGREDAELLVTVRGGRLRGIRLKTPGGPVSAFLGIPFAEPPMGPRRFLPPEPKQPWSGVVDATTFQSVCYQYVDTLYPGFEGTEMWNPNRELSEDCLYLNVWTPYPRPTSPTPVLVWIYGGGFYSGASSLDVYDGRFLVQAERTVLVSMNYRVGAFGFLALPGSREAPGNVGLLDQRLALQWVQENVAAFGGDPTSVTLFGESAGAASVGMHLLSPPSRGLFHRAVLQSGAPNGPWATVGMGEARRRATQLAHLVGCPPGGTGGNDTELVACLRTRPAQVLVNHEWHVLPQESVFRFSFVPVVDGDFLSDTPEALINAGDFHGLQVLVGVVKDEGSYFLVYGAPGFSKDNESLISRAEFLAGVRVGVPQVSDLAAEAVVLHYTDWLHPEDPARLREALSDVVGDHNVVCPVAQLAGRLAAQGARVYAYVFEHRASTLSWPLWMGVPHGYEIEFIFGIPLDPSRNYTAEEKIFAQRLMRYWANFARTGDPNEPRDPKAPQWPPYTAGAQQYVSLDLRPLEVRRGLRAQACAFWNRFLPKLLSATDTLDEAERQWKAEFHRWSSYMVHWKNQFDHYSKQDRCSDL
Structure (SMILES),inhibition at 100 µM (human rChAT [1]; [3]),% of cell proliferation (HEK 293 cells; 10 µM),% of cell proliferation (HEK 293 cells; 50 µM),inhibition at 200 µM (plasma BuChE; [4]),Ki (plasma BuChE; mean of two experiments),IC50 (plasma BuChE; [5]),inhibition at 200 µM (recombinant human AChE; [4]),Ki (recombinant human AChE),IC50 (recombinant human AChE),also measured
O=C(NC1CCCC1)c1ccc(CN2CCN(Cc3ccccc3)CC2)cc1 [Compound A2],6.9%,62.1 ± 4.0%,72.2 ± 13.1%,> 50%,84.9 µM,527 µM,0%,,,
CCc1ccc2[nH]c3nc(SCCC(=O)N4CCCCCC4)nnc3c2c1 [Compound B1],,,,15%,,,9%,,,"mode of inhibition of human rChAT (human rChAT [1]; [6]): mixed-model inhibition; Vmax of rChAT (human rChAT [1]; inhibitor 0.4 µM, mean ± SEM of two experiments): 247.3 ± 17.8 µM/min; Ki (human rChAT [1]; mean of two experiments): ~9.4 µM and 9.4 µM; IC50 (human rChAT [1]; substrate concentrations 20 to 80 µM, mean of two experiments): ~7 µM and 7 µM; BuChE % IR (inhibition rate) (plasma BuChE; [7]): 14.8%; Vmax of rChAT (human rChAT [2]; inhibitor 2.0 µM): 189.6 ± 17.3 µM/min; Vmax of rChAT (human rChAT [2]; inhibitor 10.0 µM): 154.3 ± 13.4 µM/min; Vmax of rChAT (human rChAT [2]; inhibitor 50.0 µM): 73.5 ± 9.7 µM/min; Vmax of rChAT (human rChAT [2]; inhibitor 250.0 µM): 54.9 ± 6.8 µM/min; AChE % IR (inhibition rate) (recombinant human AChE; [7]): 9.1%"
CCn1c(CNC(=O)COc2ccccc2F)cc2ccccc21 [Compound C2],0%,87.7 ± 5.0%,76.2 ± 7.6%,,59.6 µM,~365 µM and 365 µM,0%,,,mode of inhibition of BuChE (plasma BuChE; Lineweaver-Burk plot and nonlinear regression analysis): competitive mode of inhibition
CCn1c(CNC(=O)COc2ccc(F)cc2)cc2ccccc21 [Compound C4],0%,82.4 ± 4.5%,84.0 ± 10.0%,> 50%,59.4 µM,528 µM,4.9%,,,
O=C(NCc1ccc(CN2CCCCC2)cc1)c1nc(-c2ccc(C(F)(F)F)cc2)no1 [Compound C5],0%,78.9 ± 3.3%,36.1 ± 2.4%,> 50%,,,,23.7 µM,~6.3 µM and 6.3 µM,BuChE IC50 (plasma BuChE; [5]): could not be calculated due to lack of complete inhibition even at the highest tested concentration of 300 µM; mode of inhibition of AChE (recombinant human AChE; [6]): non-competitive mode of inhibition
CCN(CC)C(=O)c1cccc(Nc2ccc(-c3ccccc3OC)nn2)c1 [Compound D3],0%,79.2 ± 2.5%,66.2 ± 4.0%,20.7%,,,> 50%,177 µM,251 µM,
COc1cc(CN2CCN(Cc3ccccc3Cl)CC2)c([N+](=O)[O-])cc1OC [Compound D4],3.5%,84.0 ± 3.8%,68.1 ± 1.4%,18.2%,,,,141 µM,146 µM,
Cc1onc(-c2ccccc2Cl)c1C(=O)N1CCN(Cc2ccc3c(c2)OCO3)CC1 [Compound E7],0%,,,37.5%,,,0.5%,,,
"C[N+](C)(C)CCC(=O)c1cccc2ccccc12.[I-] [α-NETA, 2-(alpha-naphthoyl)ethyltrimethylammonium iodide, reference compound]",93%,,,,,,,,,"ChAT % IR (inhibition rate) (human rChAT [1]; 100 µM compound, compared to control, mean of three experiments in triplicate, 100 µM): 93.7%; IC50 (ChAT): 0.1 µM"

# Reference: PMC5701137, “Discovery of novel choline acetyltransferase inhibitors using structure-based virtual screening” (Scientific Reports, 2017)
